The record followed here is ChEMBL document CHEMBL1133041, “Synthetic conversion of ACAT inhibitor to acetylcholinesterase inhibitor” (Bioorg Med Chem Lett, 2000).

The target of experiment [1] is T1, Sterol O-acyltransferase 1 (Homo sapiens, UniProt P35610).
T1 sequence (P35610 whole entry): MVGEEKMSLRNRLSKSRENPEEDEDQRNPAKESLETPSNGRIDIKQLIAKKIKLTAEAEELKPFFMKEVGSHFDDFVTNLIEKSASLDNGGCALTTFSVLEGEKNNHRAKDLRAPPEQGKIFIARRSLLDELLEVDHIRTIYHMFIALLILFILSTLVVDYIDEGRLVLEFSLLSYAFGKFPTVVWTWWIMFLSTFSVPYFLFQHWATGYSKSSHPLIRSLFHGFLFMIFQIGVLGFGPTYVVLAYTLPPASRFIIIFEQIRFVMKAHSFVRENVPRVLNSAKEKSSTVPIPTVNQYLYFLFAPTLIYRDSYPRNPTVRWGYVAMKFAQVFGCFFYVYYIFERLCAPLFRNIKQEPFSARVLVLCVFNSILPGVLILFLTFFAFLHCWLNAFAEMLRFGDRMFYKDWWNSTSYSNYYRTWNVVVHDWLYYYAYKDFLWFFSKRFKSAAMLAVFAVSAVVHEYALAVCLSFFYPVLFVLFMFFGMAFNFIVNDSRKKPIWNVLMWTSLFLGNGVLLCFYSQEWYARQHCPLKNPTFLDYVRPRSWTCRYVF
The experiment is described as follows: Inhibitory activity against acyl-CoA:cholesterol acyltransferase (ACAT); no inhibition >1000.

Experiment [2] concerns the target T2, Acetylcholinesterase (Homo sapiens, UniProt P22303). As to the kind of experiment: Inhibitory activity against Acetylcholinesterase.
In experiment [3] the target is T2, Acetylcholinesterase. As to the kind of experiment: Inhibitory activity against Acetylcholinesterase; no inhibition at 100 uM.
The target in experiment [4] is T1, Sterol O-acyltransferase 1. The experiment is described as follows: Inhibitory activity against acyl-CoA:cholesterol acyltransferase (ACAT).

T2 sequence (P22303 whole entry): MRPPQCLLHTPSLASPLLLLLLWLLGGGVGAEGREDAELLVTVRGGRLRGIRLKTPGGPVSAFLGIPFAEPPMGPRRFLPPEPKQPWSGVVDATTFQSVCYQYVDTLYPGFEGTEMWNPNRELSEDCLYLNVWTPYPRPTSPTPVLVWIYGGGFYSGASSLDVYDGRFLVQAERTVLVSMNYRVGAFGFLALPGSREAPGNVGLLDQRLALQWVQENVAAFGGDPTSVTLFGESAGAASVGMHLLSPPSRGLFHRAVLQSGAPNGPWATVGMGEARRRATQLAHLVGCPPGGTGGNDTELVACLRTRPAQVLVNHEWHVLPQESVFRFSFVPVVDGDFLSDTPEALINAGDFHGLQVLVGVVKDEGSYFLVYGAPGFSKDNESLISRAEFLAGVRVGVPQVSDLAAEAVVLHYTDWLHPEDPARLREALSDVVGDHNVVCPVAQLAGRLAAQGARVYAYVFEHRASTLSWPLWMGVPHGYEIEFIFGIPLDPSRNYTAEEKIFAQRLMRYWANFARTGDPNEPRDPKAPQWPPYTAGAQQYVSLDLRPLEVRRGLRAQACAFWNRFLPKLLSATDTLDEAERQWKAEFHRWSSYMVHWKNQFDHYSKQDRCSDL

As for `COc1ccc(-c2cc3c(c(=O)o2)C(=O)C2[C@@]4(C)CC[C@H](O)[C@@](C)(CO)C4C[C@H](O)[C@@]2(C)O3)cc1` (stereo partly specified), the IC50 entry in experiment [1] is “Not Active”; in experiment [2], 70 µM.

With `COc1cccc(-c2cc3c(c(=O)o2)C(=O)C2[C@@]4(C)CC[C@H](O)[C@@](C)(CO)C4C[C@H](O)[C@@]2(C)O3)c1` (stereo partly specified), the half-inhibitory concentration (IC50) in experiment [2] is over 93 µM.

As to `C[C@]12CC[C@H](O)[C@@](C)(CO)C1C[C@H](O)[C@@]1(C)Oc3cc(-c4ccncc4)oc(=O)c3C(=O)C21` (stereo partly specified), the IC50 entry was “No inhibition” in experiment [1] and 7.9 µM in experiment [2].

As for `COc1ccc(-c2cc3c(c(=O)o2)C(=O)C2[C@@]4(C)CC[C@H](O)[C@@](C)(CO)C4C[C@H](O)[C@@]2(C)O3)cc1OC` (stereo partly specified), the IC50 in experiment [2] is 58 µM.

Take `C[C@]12CC[C@H](O)[C@@](C)(CO)C1C[C@H](O)[C@@]1(C)Oc3cc(-c4ccc(Cl)nc4)oc(=O)c3C(=O)C21` (stereo partly specified): in experiment [2], inhibition was half-maximal at 80 µM (IC50).

`C[C@]12CC[C@H](O)[C@@](C)(CO)C1C[C@H](O)[C@@]1(C)Oc3cc(-c4ccccn4)oc(=O)c3C(=O)C21` (stereo partly specified) gave an IC50 in experiment [2] of 101 µM.

Regarding `CC(=O)OC[C@@]1(C)C2C[C@H](OC(C)=O)[C@@]3(C)Oc4cc(-c5cccnc5)oc(=O)c4[C@H](O)C3[C@@]2(C)CC[C@@H]1OC(C)=O` (stereo partly specified), the IC50 entry in experiment [3] is reported as “No inhibition”.

The compound `C[C@]12CC[C@H](O)[C@@](C)(CO)C1C[C@H](O)[C@@]1(C)Oc3cc(-c4cccnc4)oc(=O)c3C(=O)C21` (stereo partly specified) yielded a half-maximal inhibitory concentration (IC50) in experiment [2] of 35 µM.

`C[C@]12CC[C@H](O)[C@@](C)(CO)C1C[C@H](O)[C@@]1(C)Oc3cc(-c4ccccc4)oc(=O)c3C(=O)C21` (stereo partly specified) displayed an IC50 in experiment [2] of 99 µM.

`COc1ccc(-c2cc3c(c(=O)o2)C[C@]2(O)[C@@]4(C)C(=O)C=CC(C)(C)[C@]4(O)CC[C@@]2(C)O3)cc1` had a concentration for half-maximal inhibition (IC50) in experiment [2] of 0.026 µM.

On to `COc1ccc(-c2cc3c(c(=O)o2)C[C@]2(O)[C@@]4(C)C(=O)C=CC(C)(C)[C@]4(O)CC[C@@]2(C)O3)cc1OC`, for which the 50% inhibitory concentration (IC50) is over 50 µM in experiment [4] and 0.001 µM in experiment [2].

With `COc1cc(-c2cc3c(c(=O)o2)C[C@]2(O)[C@@]4(C)C(=O)C=CC(C)(C)[C@]4(O)CC[C@@]2(C)O3)cc(OC)c1OC` [TERRITREM B], the figures for the concentration for half-maximal inhibition (IC50) in experiment [4] and in experiment [2] were over 50 µM and 0.008 µM, respectively.

For orientation: IC50 means the midpoint of a concentration-inhibition curve. A low value points to inhibition by little substance.
